Source: PubChem BioAssay AID1259333 (Broad Institute, 2017)
“And” between values parts separate entries of the source, which are not always exact repeats. Equal entries are not always repeated. The source made the active and inactive calls. How the calls were made is not given here; tested in parental BL2 cells.

System: not listed separately
Experiment: cell cytotoxicity, dose response, cytotoxicity control, CellTiter-Glo (AID 1259333);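 on activity change, negative = cytotoxicity: 0% = vehicle neutral controls and -100% = reference inhibitor positive controls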
Settings: cytotoxicity, CellTiter-Glo ATP luminescence; at 10 µM (top of the series)
For `COc1ccc(S(=O)(=O)Nc2ccc3c(c2)C(=O)N([C@@H](C)CO)C[C@@H](C)[C@@H](CN(C)Cc2ccc(C(F)(F)F)cc2)OCCCC[C@@H](C)O3)cc1`, the activity change, negative = cytotoxicity was -20.6% (inactive). In the case of `O=C(Cc1ccccc1)N1CC[C@@H]2[C@H]1c1cc(-c3cccc(F)c3)ccc1N[C@@H]2CO`, the activity change, negative = cytotoxicity is reported as 8.92% (inactive). With `N#C[C@@H]1[C@@H](c2ccccc2)[C@H](CO)N1C(=O)CN1CCOCC1` the activity change, negative = cytotoxicity was 77.6% (inactive). For `Oc1ccc(Cc2ccccc2)c2cccnc12`, the activity change, negative = cytotoxicity was 41.6% (inactive). In the case of `Oc1cc2c(cc1C(c1ccc(Br)cc1)N1CCCC1)OCO2` (stereo not drawn), the activity change, negative = cytotoxicity is reported as 7.99% (inactive). With `O=C(c1ccc(F)cc1)N1C[C@@H]2N[C@H](C1)C2c1ccc(/C=C/c2ccccc2)cc1` (stereo partly drawn) the activity change, negative = cytotoxicity was 12.7% (inactive) and 35.5% (inactive). With `CC(=NNC(=S)N1CC2CCC(CC2)C1)c1nccs1` the activity change, negative = cytotoxicity was 126% (inactive). With `Cc1cc(C)c2c(c1)SC1=NC(c3ccccc3)(C(F)(F)F)NC(=O)N12` (stereo not drawn) the activity change, negative = cytotoxicity was 30.7% (inactive). For `N#Cc1cccc(-c2ccc(C3[C@@H]4CN(C(=O)Nc5ccc(C(F)(F)F)cc5)C[C@H]3N4)cc2)c1` (stereo partly drawn), the activity change, negative = cytotoxicity was -11.5% (inactive). With `COc1cccc2c1C(=O)c1c(O)c3c(c(O)c1C2=O)C[C@@](O)(C(C)=O)C[C@@H]3O[C@H]1C[C@H](N)[C@H](O)[C@H](C)O1` the activity change, negative = cytotoxicity was 13.8% (inactive). With `CC1(C)C(=O)C=C[C@@]2(C)C1C(=O)C(=O)[C@]1(C)C2CC[C@@]2(C)[C@H](c3ccoc3)C[C@H]3O[C@]321` (stereo partly drawn) the activity change, negative = cytotoxicity was 161% (inactive). With `N#C[C@H]1[C@@H](c2ccc(C#CC3CCCCC3)cc2)[C@H](CO)N1C(=O)Nc1ccc(F)cc1` the activity change, negative = cytotoxicity was 22.4% (inactive). For `CC(=O)OC1CCC2(C)C(CCC3C4CC=C(C(C)=O)C4(C)OC(=O)CC32)C1` (stereo not drawn), the activity change, negative = cytotoxicity was 133% (inactive). In the case of `Oc1cc(O)cc(/C=C/c2ccc(O)c(O)c2)c1`, the activity change, negative = cytotoxicity is reported as 129% (inactive). With `CC1CC(C)CC(C)C(O)C(C#N)=CC=CCC(C2CCCC2C(=O)O)OC(=O)CC(O)C(C)C1` (stereo not drawn) the activity change, negative = cytotoxicity was -8.2% (inactive). For `CC1CCOC(=O)C=CC=CC(=O)OC2CC3OC4C5OC5(C)C(O)CC4(COC(=O)C1O)C2(C)C31CO1` (stereo not drawn), the activity change, negative = cytotoxicity was 6.8% (inactive). With `CN(C)c1ccc(NC(=O)c2cnsn2)cc1` the activity change, negative = cytotoxicity was 17.7% (inactive).

Same assay, conditions: cytotoxicity, CellTiter-Glo ATP luminescence; at 11 µM (top of the series)
For `C[C@@H]1CN([C@H](C)CO)C(=O)Cc2cc(NC(=O)Cc3cn(C)c4ccccc34)ccc2O[C@H]1CN(C)Cc1ccc(C(F)(F)F)cc1`, the activity change, negative = cytotoxicity was 6.35% (inactive).

System: cytotoxicity, CellTiter-Glo ATP luminescence
Experiment: as above
Settings: not given
In the case of `CNC(=S)NN=C(C)CCCC(C)=NNC(=S)NC`, the AC50 is reported as 10.3 µM. For `CC1CC(C)(O)CC(C(O)CC2CC(=O)NC(=O)C2)C1=O` (stereo not drawn), the AC50 was 7.54 µM. `Cc1c(CCOC(=O)CC23CC4CC(CC(C)(C4)C2)C3)sc[n+]1CC(=O)c1ccccc1` showed an AC50 of 5.88 µM. For `C[C@@H]1CN([C@H](C)CO)C(=O)c2cc(NC(=O)Nc3cccc4ccccc34)ccc2O[C@@H](C)CCCCO[C@H]1CN(C)Cc1ccc(C(F)(F)F)cc1`, the AC50 was > 20 µM (inactive). For `COC(=O)C1=C(C(=O)OC)C2OC1c1cc3ccccc3cc12`, the AC50 was 2.65 µM. In the case of `N#C[C@H]1[C@H](c2ccc(C#Cc3ccccc3F)cc2)[C@@H](CO)N1C(=O)C1CC1`, the AC50 is reported as > 20 µM (inactive). With `COc1ccc(CC2C(=O)NC(C)C(=O)N(C)C3Cc4ccc(cc4)Oc4cc(ccc4O)CC(C(=O)NC(C)C(=O)NC(C)C(=O)N2C)N(C)C3=O)cc1` (stereo not drawn) the AC50 was 10.8 µM. In the case of `CCS(=O)(=O)N1Cc2ccccc2CC1C(=O)Nc1nc2ccccc2s1` (stereo not drawn), the AC50 is reported as 5.74 µM. `COC(=O)C1=C(C(=O)OC)C(C(=O)OC)C(C(=O)OC)C(C(=O)OC)(C(=O)OC)C(C(=O)OC)=C1C(=O)OC` (stereo not drawn) gave an AC50 of 7.79 µM. Work on `Cc1ccc(S(=O)(=O)N2CCCC2CNC(=O)c2ccc3c(c2)OCO3)cc1` (stereo not drawn) yielded an AC50 of 4.95 µM. With `C[C@H](CO)N1C[C@H](C)[C@H](CN(C)S(=O)(=O)c2ccc([N+](=O)[O-])cc2)OCc2ccccc2-c2c(n(C)c3ccccc23)C1=O` the AC50 was > 20 µM (inactive). `O=[N+]([O-])c1ccc(N2CCOCC2)c2c1no[n+]2[O-]` showed an AC50 of 2.85 µM. For `Cc1cc(C)cc(N2C(=O)CC(Sc3nnnn3-c3ccccc3)C2=O)c1` (stereo not drawn), the AC50 was 4.02 µM. For `CC(=O)NCCCC(=O)NC(CCC(=O)OCc1ccccc1)C(=O)OCc1ccccc1` (stereo not drawn), the AC50 was 9.31 µM. Compound `N#C[C@H]1[C@H](c2ccc(C#Cc3ccccc3F)cc2)[C@@H](CO)N1C(=O)c1cccnc1` has an AC50 of 11.2 µM. For `CC1CC(C)C(=O)C(C(O)CC2CC(=O)NC(=O)C2)C1` (stereo not drawn), the AC50 was > 20 µM (inactive). With `O=C(Cn1ncc(Cl)c(Cl)c1=O)NC1CCCCC1` the AC50 was 9.64 µM. Compound `N#C[C@@H]1[C@H](c2ccc(C#CC3CCCCC3)cc2)[C@@H](CO)N1S(=O)(=O)c1ccccc1` has an AC50 of 7.22 µM. `C[C@@H]1O[C@@H](O[C@H]2C[C@@H](O)[C@]3(CO)C4C(CC[C@]3(O)C2)[C@@]2(O)CC[C@H](C3=CC(=O)OC3)[C@@]2(C)C[C@H]4O)[C@H](O)[C@H](O)[C@H]1O` (stereo partly drawn) gave an AC50 of 0.379 µM. `CC1=CC2OC3CC4OC(=O)C=CC=CC(=O)OCCC(C)C(O)C(=O)OCC2(CC1O)C4(C)C31CO1` (stereo not drawn) showed an AC50 of 7.23 µM. Compound `C[n+]1c2n(c3ccccc31)N=C(c1ccc(-c3ccccc3)cc1)CS2` has an AC50 of 6.3 µM. With `CC(C)c1c(O)ccc2c1CCC1C(C)(C)CCC[C@]21C` (stereo partly drawn) the AC50 was 6.74 µM. For `C[C@H]1CN([C@@H](C)CO)C(=O)c2c(c3ccccc3n2C)-c2ccccc2CO[C@@H]1CN(C)C(=O)Nc1ccccc1C(F)(F)F`, the AC50 was > 20 µM (inactive). Work on `COCCn1c(C)cc(C(=O)COC(=O)c2ccc(Cl)c(S(N)(=O)=O)c2)c1C` yielded an AC50 of 3.01 µM. For `C[C@@H]1CCCCO[C@@H](CN(C)S(=O)(=O)c2ccc(Cl)cc2)[C@H](C)CN([C@H](C)CO)C(=O)c2cc(NC(=O)Nc3ccc(C(F)(F)F)cc3)ccc2O1`, the AC50 was 6.61 µM. Work on `O=C1NC2c3c(Cl)sc(Cl)c3C(=O)C2O1` (stereo not drawn) yielded an AC50 of 3.72 µM. For `Cc1cnc(NC(=O)c2ccccn2)s1`, the AC50 was 7.7 µM. Compound `CC(C)[C@H](N)C(=O)N[C@H]1CCC2C3CC=C4C[C@@H](O)CC[C@]4(C)C3CC[C@@]21C` (stereo partly drawn) has an AC50 of 6.89 µM. `C=CC[n+]1c(/C=C2\C=Cc3cc(C)ccc3N2CC)ccc2ccccc21` gave an AC50 of 7.46 µM. In the case of `COc1ccc(CC2C(=O)NC(C)C(=O)N(C)C3C(=O)N(C)C(Cc4ccc(O)c(c4)Oc4ccc(cc4)C3O)C(=O)NC(C)C(=O)NC(C)C(=O)N2C)cc1` (stereo not drawn), the AC50 is reported as 8.5 µM. `COc1cccc(-c2cc(=O)c3cc(OC)ccc3o2)c1` gave an AC50 of 10.3 µM. With `Cc1ccc(CN2CC(C(=O)Nc3ncc(C)s3)CC2=O)cc1` (stereo not drawn) the AC50 was > 20 µM (inactive). For `COc1cc(C(=O)CCN2CCC(c3ccccc3)C2)cc(OC)c1OC` (stereo not drawn), the AC50 was 7.27 µM. For `CCCNC(=O)N1[C@H](C#N)[C@@H](c2ccc(-c3cccc(OC)c3)cc2)[C@H]1CO`, the AC50 was > 20 µM (inactive). Compound `O=C(Nc1ccc(C(F)(F)F)cc1)N1C[C@@H]2N[C@H](C1)C2c1ccc(-c2ccccc2)cc1` (stereo partly drawn) has an AC50 of 8.09 µM. For `CCc1cc2c(=O)c(-c3ccc4c(c3)OCCO4)coc2c(CN2CCCCC2C)c1O` (stereo not drawn), the AC50 was 8.84 µM. `CC(=O)O[C@H]1C[C@H](O[C@H]2[C@@H](O)C[C@H](O[C@H]3[C@@H](O)C[C@H](O[C@H]4CC[C@@]5(C)C(CCC6C5C[C@@H](O)[C@]5(C)[C@@H](C7=CC(=O)OC7)CC[C@]65O)C4)O[C@@H]3C)O[C@@H]2C)O[C@H](C)[C@H]1O[C@@H]1O[C@H](CO)[C@@H](O)[C@H](O)[C@H]1O` (stereo partly drawn) gave an AC50 of 0.758 µM. With `C[C@H](CO)N1C[C@H](C)[C@@H](CN(C)Cc2ccc(Oc3ccccc3)cc2)Oc2c(NC(=O)CCC(F)(F)F)cccc2C1=O` the AC50 was 6.84 µM. `CN(C)C(=S)SSC(=S)N(C)C` showed an AC50 of 1.36 µM. With `CC(C)C#Cc1ccc([C@H]2[C@@H](CO)N(C(=O)c3ccccn3)[C@H]2C#N)cc1` the AC50 was > 20 µM (inactive). For `Clc1ccc(C(Cn2ccnc2)OCc2ccsc2Cl)c(Cl)c1` (stereo not drawn), the AC50 was > 20 µM (inactive). With `C[C@H]1CN([C@@H](C)CO)C(=O)c2ccccc2-c2ccccc2CO[C@@H]1CN(C)Cc1ccccc1C(F)(F)F` the AC50 was 10.5 µM. Work on `CC1OC(CC(=O)O)CC2=C1C(=O)c1c(O)cccc1C2=O` (stereo not drawn) yielded an AC50 of 1.06 µM. `Cc1cc(OCC(=O)OCC(=O)NCc2ccco2)ccc1Cl` gave an AC50 of 2.21 µM. Work on `COc1ccc(S(=O)(=O)Nc2ccc3c(c2)C(=O)N([C@H](C)CO)C[C@H](C)[C@@H](CN(C)Cc2ccc(C(F)(F)F)cc2)OCCCC[C@@H](C)O3)cc1` yielded an AC50 of 10.5 µM. In the case of `COc1ccc(C[C@H]2NC[C@H](O)[C@H]2OC(C)=O)cc1`, the AC50 is reported as 2.75 µM. In the case of `COc1ccc(CNCCC(c2ccc(F)cc2)c2ccc(OC(C)C)cc2)cc1OC` (stereo not drawn), the AC50 is reported as 5.85 µM. `CC(C)(C)[C@H](N)C(=O)N[C@H]1CCC2C3CC=C4C[C@@H](O)CC[C@]4(C)C3CC[C@@]21C` (stereo partly drawn) showed an AC50 of 5.7 µM. In the case of `CSc1ccc2c(c1)N(CCC1CCCCN1C)c1ccccc1S2` (stereo not drawn), the AC50 is reported as 8.67 µM. `CC(C(=O)O)c1ccc(N2Cc3ccccc3C2=O)cc1` (stereo not drawn) gave an AC50 of 9.56 µM. In the case of `CCN(CC)C(=O)c1ccc(NC(=O)Nc2ccccc2F)cc1`, the AC50 is reported as 3.45 µM. `O=C(COC(=O)c1ccccc1C(=O)c1ccc(Cl)c([N+](=O)[O-])c1)NC1CC1` gave an AC50 of 2.45 µM. With `CC(C)NC(=O)N1CC(=O)N2[C@H](CO)[C@@H](c3ccc(/C=C/c4ccccc4)cc3)[C@H]2C1` the AC50 was > 20 µM (inactive). Work on `COc1ccc2c3c([nH]c2c1)[C@H](CO)N(C(=O)Nc1ccc(F)cc1)CC31CCN(C(=O)c2ccccc2F)CC1` yielded an AC50 of 8.44 µM. `Cc1ccc(S(=O)(=O)C=CS(=O)(=O)c2ccc(C)cc2)cc1` showed an AC50 of 3.97 µM. Compound `CC(C)(C)CC(C)(C)c1ccc(O)c(Cc2ccc(Cl)cc2Cl)c1` has an AC50 of 7.05 µM. `COc1ccc(NC(=O)O/N=C/c2c(C)nn(C(C)(C)C)c2C)cc1` gave an AC50 of 7.85 µM. Compound `Cc1c(C(=O)c2cccc3ccccc23)c2cccc3c2n1[C@H](CN1CCOCC1)CO3` has an AC50 of 3.44 µM. Compound `CC12CCC3C(CCC4(O)CC(O)CCC34C=NO)C1(O)CCC2C1=COC(=O)C1` (stereo not drawn) has an AC50 of 0.322 µM. Compound `CC1=NNC(=O)C1Br` (stereo not drawn) has an AC50 of 9.62 µM. `Nc1cccc2nc3ccccc3cc12` showed an AC50 of 1.96 µM. With `O=C1NC2C(O)C(O)C(O)C(O)C2c2cc3c(c(O)c21)OCO3` (stereo not drawn) the AC50 was 9.05 µM. For `CC1OC(OC2C(O)CC(OC3C(O)CC(OC4CCC5(C)C(CCC6C5CCC5(C)C(C7=CC(=O)OC7)C(O)CC65O)C4)OC3C)OC2C)CC(O)C1O` (stereo not drawn), the AC50 was 0.625 µM. With `CC1CC(C)C(=NNC(N)=O)C(C(O)CC2CCC(=O)NC2=O)C1` (stereo not drawn) the AC50 was > 20 µM (inactive). With `COc1ccc(C#Cc2ccc([C@H]3[C@@H](CO)N4CCCCN(S(=O)(=O)c5cn(C)cn5)C[C@H]34)cc2)cc1` the AC50 was 10.8 µM.
